Experiments:
Assay type in all cases: binding
[1] = target: T1, PsyArAT (psychrophilic aromatic amino acid aminotransferase) (Psychrobacter sp. B6, UniProt C7E5X4); assay: X-ray crystal structure (crystals grown in DL-malic acid); conditions: active site, competitive inhibitor; 2.1 M DL-malic acid pH 7.0, 0.1 M Tris-HCl pH 7.5
T1 construct: full-length Met1-Asp398, homodimer; E. coli; FOH/YOH/DOH complexes: protein as described previously; new construct: codon-optimised gene in pMCSG7, His6 tag removed by TEV, ArcticExpress (DE3)

[2] = target: T1, PsyArAT (psychrophilic aromatic amino acid aminotransferase); assay: X-ray crystal structure (co-crystallisation); conditions: active site, competitive inhibitor; both monomers; 20-fold molar excess of ligand; pH 7.5; partial PLP occupancy
[3] = target: T1, PsyArAT (psychrophilic aromatic amino acid aminotransferase); assay: X-ray crystal structure (soaking of native crystals); conditions: active site, competitive inhibitor; bound in monomers A and C only; 10-fold molar excess of ligand, 5-fold PLP; pH 7.5

T1 sequence (C7E5X4 entry or part of it): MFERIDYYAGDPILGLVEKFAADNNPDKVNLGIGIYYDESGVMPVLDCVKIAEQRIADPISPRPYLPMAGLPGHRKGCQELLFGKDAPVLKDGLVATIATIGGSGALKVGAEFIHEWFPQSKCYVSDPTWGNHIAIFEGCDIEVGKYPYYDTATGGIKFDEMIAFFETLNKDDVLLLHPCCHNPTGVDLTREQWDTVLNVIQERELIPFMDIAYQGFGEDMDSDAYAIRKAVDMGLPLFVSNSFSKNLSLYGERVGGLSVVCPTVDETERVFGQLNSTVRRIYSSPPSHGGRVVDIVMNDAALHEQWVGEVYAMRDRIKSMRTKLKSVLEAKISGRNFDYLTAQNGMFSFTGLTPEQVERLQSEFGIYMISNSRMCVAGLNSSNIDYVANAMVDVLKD

SMILES	X-ray crystal structure (co-crystallisation) [2]	further results
O=C(O)C[C@H](O)C(=O)O [DOH, L-malic acid]	–	X-ray crystal structure (crystals grown in DL-malic acid) [1]: only L-malic acid (DOH) was bound in the active center
O=C(O)[C@@H](O)Cc1ccccc1 [FOH, 3-phenyllactic acid]	carboxyl group of FOH creates two parallel hydrogen bonds with the guanidine group of Arg374	–
O=C(O)[C@@H](O)Cc1c[nH]c2ccccc12 [WOH, 3-indolelactic acid]	–	X-ray crystal structure (soaking of native crystals) [3]: The carboxylic group of the WOH is planar to the Arg374 guanidine group
O=C(O)[C@@H](O)Cc1ccc(O)cc1 [YOH, 3-(4-hydroxyphenyl)-lactic acid]	interaction of the YOH inhibitor with the residues forming the active site of subunit A	–

Reference: publication PMC8235216, “Structural Evidence of Active Site Adaptability towards Different Sized Substrates of Aromatic Amino Acid Aminotransferase from Psychrobacter Sp. B6” (Materials, 2021)
